Test results reported in PubChem BioAssay AID330 (DTP/NCI, 2004).
Values joined by “and” are separate entries in the source; they are usually repeats but may differ in a detail not shown here. Equal entries are not always repeated. Inconclusive results and toxic doses are left out.

Test system: P388 leukemia ip, CD2F1 mice, survival T/C
Test: NCI In Vivo Anticancer Drug Screen. Data for tumor model P388 Leukemia (intraperitoneal) in CD2F1 (CDF1) mice
Settings: endpoint: median survival time, higher = longer survival
Outline: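 Mice carrying the transplanted tumor received test compound or vehicle. Survival was recorded in each group, and the value is the treated-group measurement divided by that of the vehicle-treated control group.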

[1] = dose: 100.0 mg/kg/injection, schedule: Q01DX009 (ip), vehicle: saline with Tween-80
[2] = dose: 100.0 mg/kg/injection, schedule: Q04DX003 (ip), vehicle: saline with Tween-80
[3] = dose: 200.0 mg/kg/injection, schedule: Q04DX003 (ip), vehicle: saline with Tween-80
[4] = dose: 400.0 mg/kg/injection, schedule: Q04DX003 (ip), vehicle: saline with Tween-80
[5] = dose: 50.0 mg/kg/injection, schedule: Q01DX009 (ip), vehicle: saline
[6] = dose: 100.0 mg/kg/injection, schedule: Q01DX009 (ip), vehicle: saline
[7] = dose: 200.0 mg/kg/injection, schedule: Q01DX009 (ip), vehicle: saline
[8] = dose: 50.0 mg/kg/injection, schedule: Q01DX005 (ip), vehicle: saline
[9] = dose: 100.0 mg/kg/injection, schedule: Q01DX005 (ip), vehicle: saline
[10] = dose: 200.0 mg/kg/injection, schedule: Q01DX005 (ip), vehicle: saline

SMILES: CCO/C=C1\SC(=S)N(c2ccccc2C)C1=O
- T/C (dose: 2.5 mg/kg/injection, schedule: Q03HX024 (ip), vehicle: saline with Tween-80): 105 % of control
- T/C (dose: 5.0 mg/kg/injection, schedule: Q03HX024 (ip), vehicle: saline with Tween-80): 107 % of control
- T/C (dose: 10.0 mg/kg/injection, schedule: Q03HX024 (ip), vehicle: saline with Tween-80): 117 % of control
- T/C (dose: 14.6 mg/kg/injection, schedule: Q01DX009 (ip), vehicle: saline with Tween-80): 105 % of control
- T/C (dose: 22.0 mg/kg/injection, schedule: Q01DX009 (ip), vehicle: saline with Tween-80): 105 % of control
- T/C [1]: 160 % of control
- T/C [2]: 116 % of control
- T/C [3]: 120 % of control

SMILES: N#CCCN/N=C\c1ccc2c(c1)OCO2
- T/C [2]: 102 % of control
- T/C [3]: 96 % of control
- T/C [4]: 92 % of control

SMILES: NC1=NC(c2ccc(O)cc2O)c2[nH]cnc2N1 (centres undefined)
- T/C [5]: 99 % of control
- T/C [6]: 100 % of control
- T/C [7]: 97 % of control

SMILES: COc1cc[c]([Pb]([O]C(C)=O)([O]C(C)=O)[O]C(C)=O)cc1
- T/C [2]: 103 % of control
- T/C [3]: 103 % of control
- T/C [4]: 111 % of control

SMILES: CCN1CNC(=O)NC1
- T/C [5]: 112 % of control
- T/C [6]: 111 % of control
- T/C [7]: 100 % of control
- T/C (dose: 400.0 mg/kg/injection, schedule: Q01DX009 (ip), vehicle: saline): 118 % of control

SMILES: CC(=O)CC(=O)c1c(-c2ccccc2)n(C)c2ccccc12
- T/C (dose: 100.0 mg/kg/injection, schedule: Q01DX001 (ip), vehicle: Klucel (hydroxypropylcellulose) (HPC)): 98 % of control
- T/C (dose: 200.0 mg/kg/injection, schedule: Q01DX001 (ip), vehicle: Klucel (hydroxypropylcellulose) (HPC)): 101 % of control
- T/C (dose: 400.0 mg/kg/injection, schedule: Q01DX001 (ip), vehicle: Klucel (hydroxypropylcellulose) (HPC)): 102 % of control

SMILES: CC(C)(C)c1ccnc(C(O)(C(F)(F)F)C(F)(F)F)c1
- T/C (dose: 25.0 mg/kg/injection, schedule: Q01DX005 (ip), vehicle: Klucel (hydroxypropylcellulose) (HPC)): 93 % of control
- T/C (dose: 50.0 mg/kg/injection, schedule: Q01DX005 (ip), vehicle: Klucel (hydroxypropylcellulose) (HPC)): 101 % of control
- T/C (dose: 100.0 mg/kg/injection, schedule: Q01DX005 (ip), vehicle: Klucel (hydroxypropylcellulose) (HPC)): 108 % of control
- T/C (dose: 200.0 mg/kg/injection, schedule: Q01DX005 (ip), vehicle: Klucel (hydroxypropylcellulose) (HPC)): 103 % of control

SMILES: CC(=O)OC1C2C=CC1C=C2 (centres undefined)
- T/C (dose: 50.0 mg/kg/injection, schedule: Q01DX009 (ip), vehicle: saline with Tween-80): 104 % of control
- T/C [1]: 93 % of control
- T/C (dose: 200.0 mg/kg/injection, schedule: Q01DX009 (ip), vehicle: saline with Tween-80): 100 % of control

SMILES: C=CCNC(=O)c1cc(N2CC2)c([N+](=O)[O-])cc1[N+](=O)[O-]
- T/C (dose: 12.5 mg/kg/injection, schedule: Q01DX009 (ip), vehicle: Klucel (hydroxypropylcellulose) (HPC)): 91 % of control and 97 % of control

SMILES: C=CCSc1nnc(-c2ccc(C(C)(C)C)cc2)n1-c1cccc(C(F)(F)F)c1
- T/C (dose: 60.0 mg/kg/injection, schedule: Q01DX005 (ip), vehicle: saline with Tween-80): 100 % of control
- T/C (dose: 120.0 mg/kg/injection, schedule: Q01DX005 (ip), vehicle: saline with Tween-80): 100 % of control
- T/C (dose: 240.0 mg/kg/injection, schedule: Q01DX005 (ip), vehicle: saline with Tween-80): 94 % of control

SMILES: CCOC(=O)c1[nH]cc(C)c1-c1ccc(OCc2ccccc2)cc1
- T/C (dose: 100.0 mg/kg/injection, schedule: Q01DX001 (ip), vehicle: saline with Tween-80): 112 % of control
- T/C (dose: 200.0 mg/kg/injection, schedule: Q01DX001 (ip), vehicle: saline with Tween-80): 94 % of control
- T/C (dose: 400.0 mg/kg/injection, schedule: Q01DX001 (ip), vehicle: saline with Tween-80): 103 % of control

SMILES: COC1C=C(C)C(=O)O1 (centres undefined)
- T/C [8]: 106 % of control
- T/C [9]: 101 % of control
- T/C [10]: 101 % of control

SMILES: CC(NCCCCNC(C)C(=O)O)C(=O)O (centres undefined)
- T/C [8]: 94 % of control
- T/C [9]: 103 % of control
- T/C [10]: 102 % of control
